The IC50 is the concentration at which inhibition is half-maximal. A low value points to greater potency in that assay. As usually defined, the AUC is concentration integrated over time. The Cmax is the highest concentration seen after dosing. The clearance is a measure of how efficiently the substance is removed, as volume per time. Low values mean inefficient removal, high ones efficient removal. The half-life is the time in which the quantity being followed falls by half. One may read the bioavailability as dose-corrected exposure relative to a reference, in per cent. Read a high bioavailability as much systemic uptake.

These results are taken from ChEMBL document CHEMBL4346693, “Exploring the PROTAC degron candidates: OBHSA with different side chains as novel selective estrogen receptor degraders (SERDs)” (Eur J Med Chem, 2019).

The target of data set [1] is T1, Estrogen receptor (Homo sapiens) (UniProt P03372).
T1 sequence (whole entry): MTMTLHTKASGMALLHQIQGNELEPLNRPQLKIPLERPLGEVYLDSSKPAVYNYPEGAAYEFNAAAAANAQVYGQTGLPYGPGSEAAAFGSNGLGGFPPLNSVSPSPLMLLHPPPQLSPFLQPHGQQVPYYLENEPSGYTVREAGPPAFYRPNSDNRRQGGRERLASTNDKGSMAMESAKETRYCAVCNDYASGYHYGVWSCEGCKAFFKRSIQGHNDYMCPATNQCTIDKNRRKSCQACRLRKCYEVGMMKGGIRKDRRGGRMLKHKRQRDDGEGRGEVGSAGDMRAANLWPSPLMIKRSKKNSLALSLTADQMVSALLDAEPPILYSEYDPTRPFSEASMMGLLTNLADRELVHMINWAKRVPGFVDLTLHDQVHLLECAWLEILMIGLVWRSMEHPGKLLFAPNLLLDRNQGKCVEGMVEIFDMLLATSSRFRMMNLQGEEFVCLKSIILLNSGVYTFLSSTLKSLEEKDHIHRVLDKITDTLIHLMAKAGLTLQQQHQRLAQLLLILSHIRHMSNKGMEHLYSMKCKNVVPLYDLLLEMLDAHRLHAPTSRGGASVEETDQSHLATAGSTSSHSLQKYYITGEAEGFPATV
As to the kind of experiment: Binding affinity to purified human ERalpha LBD incubated for 2 hrs by fluorescence tracer based competitive fluorometric binding assay relative to estradiol.

Data set [2] has as its target T1, Estrogen receptor (Homo sapiens). As to the kind of experiment: Induction of ERalpha protein degradation in human MCF7 cells assessed as ERalpha protein level at 10 uM incubated for 20 hrs by Western blot analysis relative to control. It counts as cell-based. Background: A western blot detects proteins with antibodies after separation by electrophoresis.
Another data set relates to MCF7. The experiment in a line: cells. The settings on record: Homo sapiens, MCF7, 72 h.
For data set [3], the target named is Estrogen receptor beta (Homo sapiens) (UniProt Q92731). As to the kind of experiment: Binding affinity to ERbeta (unknown origin) incubated for 2 hrs by fluorescence tracer based competitive fluorometric binding assay relative to estradiol.
The target in data set [4] is T1, Estrogen receptor (Homo sapiens). The experiment in a line: Induction of ERalpha protein degradation in human MCF7 cells at 1 uM incubated for 20 hrs by Western blot analysis relative to control. The format is cell-based.
Data set [5] in a line: AUC in Sprague-Dawley rat at 10 mg/kg, po by LC-MS/MS analysis. It counts as ADME, organism-based. The following applies: in vivo.
A short description of data set [6]: AUC in Sprague-Dawley rat at 3 mg/kg, iv by LC-MS/MS analysis. It counts as ADME, organism-based. The settings on record: in vivo.
Data set [7] in a line: Cmax in Sprague-Dawley rat at 10 mg/kg, po by LC-MS/MS analysis. Further details: dose 10 mg/kg, route oral. The following applies: in vivo. It counts as ADME, organism-based.
Data set [8] in a line: Clearance in Sprague-Dawley rat at 3 mg/kg, iv by LC-MS/MS analysis. The format is ADME, organism-based. The following applies: in vivo.
The nature of data set [9]: Volume of distribution at steady state in Sprague-Dawley rat at 3 mg/kg, iv by LC-MS/MS analysis. The format is ADME, organism-based. The following applies: in vivo, read-out: Vdss.
The nature of data set [10]: Cmax in Sprague-Dawley rat at 3 mg/kg, iv by LC-MS/MS analysis. Further details: dose 3 mg/kg, route intravenous. It counts as ADME, organism-based. The settings on record: in vivo.
Data set [11] concerns the target T1, Estrogen receptor (Homo sapiens). As to the kind of experiment: Induction of ERalpha protein degradation in human MCF7 cells at 0.5 uM incubated for 20 hrs by Western blot analysis. The format is cell-based.
The nature of data set [12]: Half life in Sprague-Dawley rat at 3 mg/kg, iv by LC-MS/MS analysis. The format is ADME, organism-based. The following applies: in vivo.
Data set [13] is described as follows: Half life in Sprague-Dawley rat at 10 mg/kg, po by LC-MS/MS analysis. The format is ADME, organism-based. The following applies: in vivo.
A short description of data set [14]: Oral bioavailability in Sprague-Dawley rat at 10 mg/kg by LC-MS/MS analysis. The format is ADME, organism-based. The settings on record: in vivo.
Data set [15] addresses T1, Estrogen receptor (Homo sapiens). As to the kind of experiment: Induction of ERalpha protein degradation in human MCF7 cells at 5 uM incubated for 20 hrs by Western blot analysis relative to control. It counts as cell-based.

Structures are written as SMILES. The source made the active and inactive calls. The calls are words filed in the database; no cut-off is given here.

Chain of Estrogen receptor beta (Homo sapiens) (Q92731 whole entry): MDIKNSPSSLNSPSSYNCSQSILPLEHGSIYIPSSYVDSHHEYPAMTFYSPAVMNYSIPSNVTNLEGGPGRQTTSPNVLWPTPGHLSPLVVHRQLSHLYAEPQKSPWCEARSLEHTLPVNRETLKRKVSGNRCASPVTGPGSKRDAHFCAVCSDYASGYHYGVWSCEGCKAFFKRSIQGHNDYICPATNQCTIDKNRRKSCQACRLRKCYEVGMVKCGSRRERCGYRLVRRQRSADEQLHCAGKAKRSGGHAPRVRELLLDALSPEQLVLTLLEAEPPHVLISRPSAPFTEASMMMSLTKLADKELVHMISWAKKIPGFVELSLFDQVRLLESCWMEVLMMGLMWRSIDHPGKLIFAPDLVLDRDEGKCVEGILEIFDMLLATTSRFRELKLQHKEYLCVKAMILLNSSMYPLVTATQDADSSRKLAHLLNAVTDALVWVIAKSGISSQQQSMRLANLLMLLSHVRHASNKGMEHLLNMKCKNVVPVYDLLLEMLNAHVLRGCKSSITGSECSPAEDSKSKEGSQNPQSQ
Description for MCF7: Antiproliferative activity against human MCF7 cells incubated for 72 hrs by MTT assay

For the compound `CCN(c1ccc(OCCCCCCCCCCC(=O)O)cc1)S(=O)(=O)[C@H]1C[C@H]2O[C@@H]1C(c1ccc(O)cc1)=C2c1ccc(O)cc1` (relative stereo), the RBA in [1] is 0.57%; in data set [3] it was < 0.01%. Moreover, in data set [2], the Activity was determined as 29%. In the data set with MCF7, the IC50 was 18.4 µM.
`CCN(c1ccc(OCC(O)CO)cc1)S(=O)(=O)[C@H]1C[C@H]2O[C@@H]1C(c1ccc(O)cc1)=C2c1ccc(O)cc1` (relative stereo): the values for the RBA in [1] and in data set [3] were 0.46% and 0.53%, respectively. Further, the Activity in data set [2] was found to be 63%. For the same compound, in the data set with MCF7, the IC50 worked out at 32.3 µM.
Taken in the same sequence, the figures for `CCN(c1ccccc1)S(=O)(=O)[C@H]1C[C@H]2O[C@@H]1C(c1ccc(OCCCCCCCC(=O)O)cc1)=C2c1ccc(O)cc1` (relative stereo) were 1.2%, 0.4%, 79% and 27.4 µM.
Taken in the same sequence, the figures for `CCN(c1ccc(OCCCCCCCC(=O)O)cc1)S(=O)(=O)[C@H]1C[C@H]2O[C@@H]1C(c1ccc(O)cc1)=C2c1ccc(O)cc1` (relative stereo) were 3.21%, 0.42%, 78% and 24.9 µM.
For `COc1ccc(N(CC(F)(F)F)S(=O)(=O)[C@H]2C[C@H]3O[C@@H]2C(c2ccc(OCCN4CCCC4)cc2)=C3c2ccc(O)cc2)cc1` (relative stereo), the Activity came out at 100% in data set [4] and 1% in [2]. Besides, the RBA in data set [1] was 2.12%; in data set [3], 1.81%. Further, the exposure (AUC) in data set [5] was determined as 330 ng·h/mL; in [6] it was 1080 ng·h/mL. In addition, the Cmax is 50 ng/mL in data set [7] and 1000 ng/mL in data set [10]. The compound also yielded a clearance in data set [8] of 46 mL/min/kg. For the same compound, the Vd in data set [9] is 9.55 L/kg. The outcome in data set [11] was Active. The compound also had an IC50 in the data set on MCF7 of 6.1 µM. The values for the half-life in [12] and in data set [13] were 6.2 h and 3.7 h, respectively. This compound also displayed a bioavailability in data set [14] of 9.2%.
In the case of `CCN(c1ccccc1)S(=O)(=O)[C@H]1C[C@H]2O[C@@H]1C(c1ccc(OCCN3CCCCC3)cc1)=C2c1ccc(O)cc1` (relative stereo), the RBA in data set [1] is 2.51%; in [3] it was 0.81%. Moreover, the Activity in [2] was 95%. This compound also came in with an IC50 in the data set on MCF7 of 12.9 µM.
Taken in the same sequence, the figures for `CCN(c1ccccc1)S(=O)(=O)[C@H]1C[C@H]2O[C@@H]1C(c1ccc(OCC(O)CO)cc1)=C2c1ccc(O)cc1` (relative stereo) were 0.26%, 0.28%, 117% and 33.6 µM.
Regarding `CCN(c1ccc(OCCCCCCC(=O)O)cc1)S(=O)(=O)[C@H]1C[C@H]2O[C@@H]1C(c1ccc(O)cc1)=C2c1ccc(O)cc1` (relative stereo), the RBA in data set [1] was 1.22%; in data set [3] it was 0.41%. The Activity in data set [2] turned out to be 92%. Also, the IC50 in the data set on MCF7 was > 50 µM.
In [15], `COc1ccc(N(CC(F)(F)F)S(=O)(=O)[C@H]2C[C@H]3O[C@@H]2C(c2ccc(O)cc2)=C3c2ccc(O)cc2)cc1` showed an Activity of 100%.
For `COc1ccc(N(CC(F)(F)F)S(=O)(=O)[C@H]2C[C@H]3O[C@@H]2C(c2ccc(OCCCCCCCCCCC(=O)O)cc2)=C3c2ccc(O)cc2)cc1` (relative stereo), the RBA in data set [1] was found to be 0.06%; in data set [3] it was 0.7%. Besides, the Activity in data set [2] is 83%. In the data set with MCF7, this compound displayed an IC50 of 14.3 µM.
Taken in the same sequence, the figures for `CCN(c1ccc(OCCN2CCCCC2)cc1)S(=O)(=O)[C@H]1C[C@H]2O[C@@H]1C(c1ccc(O)cc1)=C2c1ccc(O)cc1` (relative stereo) were 0.58%, 0.25%, 89% and 5.4 µM.
Regarding `COc1ccc(N(CC(F)(F)F)S(=O)(=O)[C@H]2C[C@H]3O[C@@H]2C(c2ccc(OCCCCCCC(=O)O)cc2)=C3c2ccc(O)cc2)cc1` (relative stereo), the RBA was 1.82% in [1] and 0.13% in data set [3]. The Activity in data set [2] turned out to be 32%. Further, the IC50 in the data set with MCF7 was 15.9 µM.
In the case of `O=S(=O)([C@H]1C[C@H]2O[C@@H]1C(c1ccc(OCC(O)CO)cc1)=C2c1ccc(O)cc1)N(CC(F)(F)F)c1ccc(Cl)cc1` (relative stereo), the RBA was 1.62% in data set [1] and < 0.01% in data set [3]. Also, the Activity in [2] was determined as 38%. Further, the IC50 in the data set with MCF7 turned out to be 16.8 µM.
`CC/C(=C(\c1ccc(O)cc1)c1ccc(OCCN(C)C)cc1)c1ccccc1` [AFIMOXIFENE] gave an IC50 in the data set with MCF7 of 10.1 µM.
On to `CN(c1ccccc1)S(=O)(=O)[C@H]1C[C@H]2O[C@@H]1C(c1ccc(OCCN3CCCCC3)cc1)=C2c1ccc(O)cc1` (relative stereo), for which the RBA in data set [1] turned out to be 0.95%; in data set [3], 0.79%. In addition, in [2], the Activity is 98%. Also, the midpoint of inhibition with MCF7, the IC50, lay at 15.2 µM.
In the case of `COc1ccc(N(CC(F)(F)F)S(=O)(=O)[C@H]2C[C@H]3O[C@@H]2C(c2ccc(OCCCCCCCC(=O)O)cc2)=C3c2ccc(O)cc2)cc1` (relative stereo), the RBA was 0.07% in data set [1] and < 0.01% in [3]. For the same compound, the Activity in data set [2] is 42%. Moreover, in the data set with MCF7, the IC50 was found to be 40.3 µM.
Taken in the same sequence, the figures for `CCN(c1ccccc1)S(=O)(=O)[C@H]1C[C@H]2O[C@@H]1C(c1ccc(OCCCCCCCCCCC(=O)O)cc1)=C2c1ccc(O)cc1` (relative stereo) were 0.93%, 0.13%, 51% and 10.3 µM.
